Experiments:
tumors = details: cited from earlier work
[1] = Brain infarct size after MCAO; format: in vivo, mice; details: post-ischemic mice, single dose of α-GalCer (FIG. 45A)
Method: Male mice of 8-12 weeks old were anesthetized by intraperitoneal injection of a mixture of 10 mg/kg xylazine hydrochloride (MTC Pharmaceuticals, Cambridge, ON) and 200 mg/kg ketamine hydrochloride (Rogar/STB, London, ON). Body temperature was maintained at 37° C. using a heating pad and temperature regulator with rectal probe. Mice were randomly divided into 2 groups: (i) sham-operated, and (ii) MCAO-operated. All surgical instruments were sterilized before the surgery. Before any incision, the area was swabbed with ethanol. To induce MCAO, a 10-mm incision was made on the right-hand side of the neck. Then, the common carotid artery, external carotid artery, and internal carotid artery were dissected free. The external carotid artery was further dissected distally, then coagulated and cut to serve as a stump. After applying temporary clamps at the common carotid artery and internal carotid artery, a monofilament with a silicon coating diameter of 0.21-0.23 mm (Doccol Corporation, Redlands, Calif., USA) was inserted into the stump of the external carotid artery. The monofilament then advanced a defined distance (12 mm) so that the distal end of the monofilament came to rest across the origin of the MCA. The stump of external carotid artery was tied off. The wound on the neck of the mouse was sutured and the mouse was then transferred onto a heat pad to maintain its body temperature at 37° C. After 30 mins of occlusion, the monofilament was withdrawn to allow reperfusion to occur. The animal then recovered from the anaesthesia. Rehydration of the mice was performed every 4 h with a subcutaneous injection of electrolytes and glucose. Food pellets softened with water were placed in the cage after surgery as the mice recovered, and access to water was provided. Sham-operated animals were subjected to the initial anaesthetic and neck incision only. The animals were then allowed to recover from anaesthetic. All animals were put onto a 37° C. heat pad, post-surgery, to recover from anaesthesia until euthanized.

[2] = Alanine transaminase (ALT) activity assay in peripheral blood; format: in vivo; details: post-ischemic mice after the single dose of α-GalCer (FIG. 45B)
Method: Separate groups of control sham-operated mice received a single-dose administration of the α-GalCer compositions following the procedures, both as outlined in Example 7 (one composition/one group of four mice). Also, separate groups of post-ischemic mice received a single-dose administration of the α-GalCer compositions about 2 h after the MCAO events, following the procedures as outlined in Example 7 (one composition/one group of four mice). All animals were euthenized 24 h after MCAO events, and their peripheral blood was harvested. The levels of alanine transaminase (ALT) in the samples were determined with an ALT activity assay following the manufacturer's instructions to determine the rates of oxidation of NADH to NAD^+.

[3] = Lung injury assessment (MPO activity, lung edema); format: in vivo; details: post-ischemic mice 24 h after MCAO
Method: The lungs of anaesthetized mice were removed after specified period of reperfusion. For determination of lung myeloperoxidase (MPO) activity (an indicator of lung inflammation), samples of lungs were removed, weighed, immediately frozen in liquid nitrogen and stored at −80° C. until the MPO activity assay was performed. Myeloperoxidase activity was measured using an assay previously described (Krawisz et al., 1984) and modified to be used in a 96-well microtitre plate. Values are expressed as units of MPO activity per milligram of lung tissue (U/mg tissue). For determination of lung fluid content, the left lobes were dissected gently dried using a blotting paper, and weighed. The tissues were dried at 55° C. for 72 h and reweighed. The percentage of lung weight attributed to fluid was calculated as an indicator of lung edema formation.
The lung tissues were removed at 24 h post-MCAO and assessed for: (i) myeloperoxidase activity as a measure of neutrophil infiltration, and (ii) for lung edema.

## CCCCCCCCCCCCCCCCCCCCCCCCCCC(=O)N[C@@H](COC1OC(CO)C(O)C(O)C1O)[C@H](O)[C@H](O)CCCCCCCCCCCCCC (stereo partly drawn) [α-GalCer, α-galactosylceramide]
tumors; liver metastatic models
  growth of tumors: suppressed
  survival term of the tumor-bearing mice: prolonged
tumors; murine in vivo experiments incl. subcutaneous implanted model and liver and lung metastatic models
  anti-tumor activity: potent anti-tumor activity
[1]
  infarct sizes: no notable differences
[2]
  liver enzyme (ALT) levels within the blood: no significant difference
[3]; 2 μg/mouse i.v. 2 h after MCAO (FIG. 43B)
  stroke-induced neutrophil pulmonary influx (MPO activity in lung): reduced
[3]; 2 μg/mouse i.v. 2 h after MCAO (FIG. 43C)
  lung edema: reduced
